Source: PubChem BioAssay (NCI)
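Growth conditions: 96-well plates. Treatment: test compound, 48 hours, 5 concentrations. Analysis: linear interpolation between bracketing concentrations; unreached endpoints set to highest concentration. TGI denotes the concentration required for complete inhibition of growth.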

Experiments:
Assay in all cases: NCI anticancer screen, dose series, 48 h
[1] = tested on: LOX IMVI melanoma
[2] = tested on: MDA-MB-231 breast
[3] = tested on: HOP-62 NSCLC
[4] = tested on: K-562 leukemia
[5] = tested on: U251 CNS
[6] = tested on: RXF 393 renal
[7] = tested on: HOP-92 NSCLC
[8] = tested on: HCT-116 colon
[9] = tested on: SN12C renal
[10] = tested on: HT29 colon
[11] = tested on: RPMI-8226 leukemia
[12] = tested on: A498 renal
[13] = tested on: UACC-257 melanoma
[14] = tested on: NCI-H23 lung
[15] = tested on: PC-3 prostate
[16] = tested on: SF-268 CNS
[17] = tested on: NCI-H522 lung
[18] = tested on: SW-620 colon
[19] = tested on: CCRF-CEM leukemia
[20] = tested on: NCI/ADR-RES ovarian
[21] = tested on: UO-31 renal
[22] = tested on: HS 578T breast
[23] = tested on: HCT-15 colon
[24] = tested on: EKVX NSCLC
[25] = tested on: ACHN renal
[26] = tested on: SF-295 CNS
[27] = tested on: 786-0 renal
[28] = tested on: SK-OV-3 ovarian
[29] = tested on: SK-MEL-2 melanoma
[30] = tested on: OVCAR-8 ovarian
[31] = tested on: HL-60(TB) leukemia
[32] = tested on: SNB-19 CNS
[33] = tested on: DU-145 prostate
[34] = tested on: NCI-H226 lung
[35] = tested on: SK-MEL-28 melanoma
[36] = tested on: NCI-H460 lung
[37] = tested on: MCF7 breast
[38] = tested on: MDA-MB-435
[39] = tested on: OVCAR-5 ovarian
[40] = tested on: IGROV1 ovarian
[41] = tested on: OVCAR-3 ovarian
[42] = tested on: CAKI-1 renal
[43] = tested on: OVCAR-4 ovarian
[44] = tested on: TK-10 renal
[45] = tested on: UACC-62 melanoma
[46] = tested on: A549 NSCLC
[47] = tested on: MOLT-4 leukemia
[48] = tested on: KM12 colon
[49] = tested on: MALME-3M melanoma
[50] = tested on: BT-549 breast
[51] = tested on: HCC-2998 colon
[52] = tested on: T-47D breast
[53] = tested on: SK-MEL-5 melanoma
[54] = tested on: COLO 205 colon
[55] = tested on: M14 melanoma

CS(=O)(=O)Nc1ccc(Nc2cc[nH]c3ccc4nccc4c23)cc1
TGI [1]: 34.2 µM
TGI [2]: 21.6 µM
TGI [3]: 37.3 µM
TGI [4]: 32 µM
TGI [5]: 22 µM
TGI [6]: 30.2 µM
TGI [7]: 46.3 µM
TGI [8]: > 43.1 µM
TGI [9]: 32.3 µM
TGI [10]: 48.4 µM
TGI [11]: 44.6 µM
TGI [12]: 34.2 µM
TGI [13]: 31.5 µM
TGI [14]: 38.5 µM
TGI [15]: 30.3 µM
TGI [16]: 18.9 µM
TGI [17]: 24.3 µM
TGI [18]: 49.8 µM
TGI [19]: > 67.8 µM
TGI [20]: > 100 µM
TGI [21]: > 81.2 µM
TGI [22]: > 60.8 µM
TGI [23]: > 100 µM
TGI [24]: 58.7 µM
TGI [25]: 65.3 µM
TGI [26]: 62.2 µM
TGI [27]: 38.4 µM
TGI [28]: > 100 µM
TGI [29]: 23.9 µM
TGI [30]: > 65.1 µM
TGI [31]: 42 µM
TGI [32]: 26.3 µM
TGI [33]: 22.2 µM
TGI [34]: 24.5 µM
TGI [35]: 32.2 µM
TGI [36]: 31.8 µM
TGI [37]: 20.7 µM
TGI [38]: 29.5 µM
TGI [39]: 61.1 µM
TGI [40]: 58.5 µM
TGI [41]: 32.5 µM
TGI [42]: 68.4 µM
TGI [43]: 26.2 µM
TGI [44]: 82.1 µM
TGI [45]: 28.1 µM
TGI [46]: 38.8 µM
TGI [47]: 7.78 µM
TGI [48]: 28.1 µM
TGI [49]: 18.4 µM
TGI [50]: 40 µM
TGI [51]: 16.3 µM
TGI [52]: 22.6 µM
TGI [53]: 24.7 µM
TGI [54]: 44.2 µM
TGI [55]: 30.4 µM
